Data from patent US10961278B2, “Vancomycin derivative, preparation method, pharmaceutical composition and use thereof” (SHANGHAI INSTITUTE OF MATERIA MEDICA, CHINESE ACADEMY OF …, priority 2016, dated 2021).
Converted amounts (≈) assume the structure as drawn. Like-named read-outs stand apart in the source and are kept apart here.

Assays:
[1] = test system: vancomycin-sensitive Staphylococcus aureus Newman strain; test: In vitro antibacterial activity assay (MIC, CLSI dilution method); assay type: cell-based; conditions: Staphylococcus aureus, 16 h, S. aureus Newman, 37° C.
[2] = test system: vancomycin-middle resistant Staphylococcus aureus Mu50 strain; test: as above; assay type: cell-based; conditions: Staphylococcus aureus, 16 h, read-out: MIC Mu50

CCCCCCCCCCC(=O)NC1(C)C[C@H](O[C@H]2C(Oc3c4cc5cc3Oc3ccc(cc3Cl)[C@@H](O)[C@@H](NC(=O)[C@@H](CC(C)C)NC)C(=O)N[C@@H](CC(N)=O)C(=O)N[C@H]5C(=O)N[C@H]3C(=O)N[C@H](C(=O)N[C@H](C(=O)O)c5cc(O)c(CNCCCNC(=O)[C@H](O)[C@@H](O)[C@H](O)[C@H](O)CO)c(O)c5-c5cc3ccc5O)[C@H](O)c3ccc(c(Cl)c3)O4)O[C@H](CO)C(O)C2O)CC(C)[C@H]1O (stereo partly shown) [Van025] was tested, and the MIC ([1]; NEWMAN) was 16 µg/mL (≈ 8.51 µM) and the MIC ([2]; S. aureus Mu50, 37° C.) was 32 µg/mL (≈ 17 µM).
Work on CCCCOc1ccc(CNC2(C)C[C@H](O[C@H]3C(Oc4c5cc6cc4Oc4ccc(cc4Cl)[C@@H](O)[C@@H](NC(=O)[C@@H](CC(C)C)NC)C(=O)N[C@@H](CC(N)=O)C(=O)N[C@H]6C(=O)N[C@H]4C(=O)N[C@H](C(=O)N[C@H](C(=O)O)c6cc(O)c(CNCCCNC(=O)[C@H](O)[C@@H](O)[C@H](O)[C@H](O)CO)c(O)c6-c6cc4ccc6O)[C@H](O)c4ccc(c(Cl)c4)O5)O[C@H](CO)C(O)C3O)CC(C)[C@H]2O)cc1 (stereo partly shown) [Van030] yielded an MIC ([1]; NEWMAN) of 1 µg/mL (≈ 0.534 µM) and an MIC ([2]; S. aureus Mu50, 37° C.) of 2 µg/mL (≈ 1.07 µM).
For CCCCCCCCCCNC1(C)C[C@H](O[C@@H]2C(O)C(O)[C@@H](CO)O[C@H]2Oc2c3cc4cc2Oc2ccc(cc2Cl)[C@@H](O)[C@@H](NC(=O)[C@@H](CC(C)C)NC)C(=O)N[C@@H](CC(N)=O)C(=O)N[C@H]4C(=O)N[C@@H]2C(=O)N[C@H](C(=O)N[C@H](C(=O)O)c4cc(O)c(CNC5C(O)OC(CO)[C@H](O)[C@@H]5O)c(O)c4-c4cc2ccc4O)[C@H](O)c2ccc(c(Cl)c2)O3)O[C@@H](C)[C@H]1O (stereo partly shown) [Van034], the MIC ([1]; NEWMAN) was no more than 0.0625 µg/mL and the MIC ([2]; S. aureus Mu50, 37° C.) was 0.25 µg/mL (≈ 0.14 µM).
CCCCCc1ccc(CNC2(C)C[C@H](O[C@@H]3C(O)C(O)[C@@H](CO)O[C@H]3Oc3c4cc5cc3Oc3ccc(cc3Cl)[C@@H](O)[C@@H](NC(=O)[C@@H](CC(C)C)NC)C(=O)N[C@@H](CC(N)=O)C(=O)N[C@H]5C(=O)N[C@@H]3C(=O)N[C@H](C(=O)N[C@H](C(=O)O)c5cc(O)c(CNC6C(O)OC(CO)[C@H](O)[C@@H]6O)c(O)c5-c5cc3ccc5O)[C@H](O)c3ccc(c(Cl)c3)O4)O[C@@H](C)[C@H]2O)cc1 (stereo partly shown) [Van036] gave an MIC [1] of 0.25 µg/mL (≈ 0.139 µM) and an MIC [2] of 0.5 µg/mL (≈ 0.278 µM).
With CN[C@H](CC(C)C)C(=O)N[C@H]1C(=O)N[C@@H](CC(N)=O)C(=O)N[C@H]2C(=O)N[C@H]3C(=O)N[C@H](C(=O)N[C@H](C(=O)O)c4cc(O)c(CNCCCNC(=O)[C@H](O)[C@@H](O)[C@H](O)[C@H](O)CO)c(O)c4-c4cc3ccc4O)[C@H](O)c3ccc(c(Cl)c3)Oc3cc2cc(c3OC2O[C@H](CO)C(O)C(O)[C@H]2O[C@@H]2CC(C)[C@@H](O)C(C)(NCc3ccc(OCc4cccc(-c5ccccc5)c4C)c(Cl)c3)C2)Oc2ccc(cc2Cl)[C@H]1O (stereo partly shown) [Van017] the MIC ([1]; NEWMAN) was 0.5 µg/mL (≈ 0.246 µM) and the MIC ([2]; S. aureus Mu50, 37° C.) was 1 µg/mL (≈ 0.492 µM).
CCCCCCCCCCNCCNC1(C)C[C@H](O[C@@H]2C(O)C(O)[C@@H](CO)O[C@H]2Oc2c3cc4cc2Oc2ccc(cc2Cl)[C@@H](O)[C@@H](NC(=O)[C@@H](CC(C)C)NC)C(=O)N[C@@H](CC(N)=O)C(=O)N[C@H]4C(=O)N[C@@H]2C(=O)N[C@H](C(=O)N[C@H](C(=O)O)c4cc(O)c(CNCCO)c(O)c4-c4cc2ccc4O)[C@H](O)c2ccc(c(Cl)c2)O3)O[C@@H](C)[C@H]1O (stereo partly shown) [Van005] was tested, and the MIC ([1]; NEWMAN) was 1 µg/mL (≈ 0.586 µM) and the MIC ([2]; S. aureus Mu50, 37° C.) was 4 µg/mL (≈ 2.35 µM).
With CCCCCCCCCCNCCNC1(C)C[C@H](O[C@H]2C(Oc3c4cc5cc3Oc3ccc(cc3Cl)[C@@H](O)[C@@H](NC(=O)[C@@H](CC(C)C)NC)C(=O)N[C@@H](CC(N)=O)C(=O)N[C@H]5C(=O)N[C@H]3C(=O)N[C@H](C(=O)N[C@H](C(=O)O)c5cc(O)c(CNCCCNC(=O)[C@H](O)[C@@H](O)[C@H](O)[C@H](O)CO)c(O)c5-c5cc3ccc5O)[C@H](O)c3ccc(c(Cl)c3)O4)O[C@H](CO)C(O)C2O)OC(C)[C@H]1O (stereo partly shown) [Van009] the MIC ([1]; NEWMAN) was 0.5 µg/mL (≈ 0.264 µM) and the MIC ([2]; S. aureus Mu50, 37° C.) was 1 µg/mL (≈ 0.527 µM).
For CCCCCCCCCCNCCNC1(C)C[C@H](O[C@H]2C(Oc3c4cc5cc3Oc3ccc(cc3Cl)[C@@H](O)[C@@H](NC(=O)[C@@H](CC(C)C)NC)C(=O)N[C@@H](CC(N)=O)C(=O)N[C@H]5C(=O)N[C@H]3C(=O)N[C@H](C(=O)N[C@H](C(=O)O)c5cc(O)c(CNCCO[C@@H]6OC(CO)[C@@H](O)C(O)C6O)c(O)c5-c5cc3ccc5O)[C@H](O)c3ccc(c(Cl)c3)O4)O[C@H](CO)C(O)C2O)OC(C)[C@H]1O (stereo partly shown) [Van004], the MIC ([1]; NEWMAN) was 1 µg/mL (≈ 0.535 µM) and the MIC ([2]; S. aureus Mu50, 37° C.) was 4 µg/mL (≈ 2.14 µM).
